The supplement of paper PMC5303821, “Major sulfonate transporter Soa1 in Saccharomyces cerevisiae and considerable substrate diversity in its fungal family” (Nature Communications, 2017)

Tests used:
Details in all cases: sulfur source concentration 200 µM; S. cerevisiae S288C/BY sul1Δ sul2Δ soa1Δ with transporter ortholog inserted at SOA1 locus; sulfur-free B medium, 4% glucose, pH 6.5, sole sulfur source
[1] = system: Metarhizium robertsii_XP_007821441; experiment: maximal growth rate with compound as sole sulfur source (OD600 per h); higher = better growth / uptake of the sulfur source
Method: (§1)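 S. cerevisiae sul1Δ sul2Δ soa1Δ strains expressing 20 fungal SOA1 orthologs (or no transporter, 'soa1 del') were grown in liquid sulfur-free B medium, 4% glucose, pH 6.5 (7 mM K2HPO4). The strains were sulfur-starved for 3 days beforehand. Each sulfur compound was the sole sulfur source at 200 µM (sulfate also at 40 mM). OD600 curves of duplicate cultures were averaged and fitted (logistic / Richards, GroFit) to give maximal growth rate, maximal density and lag phase; temperature not stated.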

[2] = system: Aspergillus nidulans_CBF74694; experiment: as above
Method: as §1

[3] = system: Saccharomyces cerevisiae_SOA1; experiment: as above
Method: as §1

[4] = system: Aspergillus nidulans_XP_661711; experiment: as above
Method: as §1

[5] = system: Aspergillus nidulans_CBF80346; experiment: as above
Method: as §1

[6] = system: Aspergillus nidulans_XP_661733; experiment: as above
Method: as §1

[7] = system: Saccharomyces eubayanus_SOA2; experiment: as above
Method: as §1

[8] = system: Aspergillus nidulans (IAM 2006)_astA; experiment: as above
Method: as §1

[9] = system: Metarhizium robertsii_XP_007822519; experiment: as above
Method: as §1

[10] = system: Metarhizium robertsii_XP_007823832; experiment: as above
Method: as §1

[11] = system: Fusarium oxysporum_ENH65823; experiment: as above
Method: as §1

[12] = system: Ogataea parapolymorpha_XP_013935289; experiment: as above
Method: as §1

soa1 del [13] = experiment: as above
Method: as §1

[14] = system: Saccharomyces eubayanus_SOA1; experiment: as above
Method: as §1

[15] = system: Saccharomyces uvarum_SOA1; experiment: as above
Method: as §1

[16] = system: Ogataea parapolymorpha_XP_013936897; experiment: as above
Method: as §1

[17] = system: Saccharomyces uvarum_SOA2; experiment: as above
Method: as §1

[18] = system: Aspergillus nidulans_XP_681611; experiment: as above
Method: as §1

[19] = system: Aspergillus nidulans_XP_660670; experiment: as above
Method: as §1

[20] = system: Ogataea parapolymorpha_XP_013932458; experiment: as above
Method: as §1

[21] = system: Aspergillus nidulans_XP_660563; experiment: as above
Method: as §1

[22] = system: Metarhizium robertsii_XP_007821441; experiment: maximal culture density with compound as sole sulfur source (OD600); higher = better growth
Method: as §1

[23] = system: Aspergillus nidulans_CBF74694; experiment: as above
Method: as §1

[24] = system: Saccharomyces cerevisiae_SOA1; experiment: as above
Method: as §1

[25] = system: Aspergillus nidulans_XP_661711; experiment: as above
Method: as §1

[26] = system: Aspergillus nidulans_CBF80346; experiment: as above
Method: as §1

[27] = system: Aspergillus nidulans_XP_661733; experiment: as above
Method: as §1

[28] = system: Saccharomyces eubayanus_SOA2; experiment: as above
Method: as §1

[29] = system: Aspergillus nidulans (IAM 2006)_astA; experiment: as above
Method: as §1

[30] = system: Metarhizium robertsii_XP_007822519; experiment: as above
Method: as §1

[31] = system: Metarhizium robertsii_XP_007823832; experiment: as above
Method: as §1

[32] = system: Fusarium oxysporum_ENH65823; experiment: as above
Method: as §1

[33] = system: Ogataea parapolymorpha_XP_013935289; experiment: as above
Method: as §1

soa1 del [34] = experiment: as above
Method: as §1

[35] = system: Saccharomyces eubayanus_SOA1; experiment: as above
Method: as §1

[36] = system: Saccharomyces uvarum_SOA1; experiment: as above
Method: as §1

[37] = system: Ogataea parapolymorpha_XP_013936897; experiment: as above
Method: as §1

[38] = system: Saccharomyces uvarum_SOA2; experiment: as above
Method: as §1

[39] = system: Aspergillus nidulans_XP_681611; experiment: as above
Method: as §1

[40] = system: Aspergillus nidulans_XP_660670; experiment: as above
Method: as §1

[41] = system: Ogataea parapolymorpha_XP_013932458; experiment: as above
Method: as §1

[42] = system: Aspergillus nidulans_XP_660563; experiment: as above
Method: as §1

[43] = system: Saccharomyces cerevisiae_SOA1; experiment: lag phase before growth; higher = slower start of growth
Method: as §1

[44] = system: Ogataea parapolymorpha_XP_013935289; experiment: as above
Method: as §1

[45] = system: Saccharomyces uvarum_SOA2; experiment: as above
Method: as §1

**Q.** What does the source list for `O=S(=O)(O)CCO` [Isethionate]?
**A.** maximal growth rate [1]: 0.00324; maximal growth rate [2]: 0.00301; maximal growth rate [3]: 0.0707; maximal growth rate [4]: 0.00367; maximal growth rate [5]: 0.00382; maximal growth rate [6]: 0.00489; maximal growth rate [7]: 0.0595; maximal growth rate [8]: 0.0178; maximal growth rate [9]: 0.0519; maximal growth rate [10]: 0.0144; maximal growth rate [11]: 0.00374; maximal growth rate [12]: 0.0699; maximal growth rate (soa1 del [13]): 0.00355; maximal growth rate [14]: 0.0612; maximal growth rate [15]: 0.0659; maximal growth rate [16]: 0.0049; maximal growth rate [17]: 0.0695; maximal growth rate [18]: 0.00854; maximal growth rate [19]: 0.00369; maximal growth rate [20]: 0.00421; maximal growth rate [21]: 0.00647; maximal culture density [22]: 0.223; maximal culture density [23]: 0.195; maximal culture density [24]: 1.61; maximal culture density [25]: 0.233; maximal culture density [26]: 0.213; maximal culture density [27]: 0.269; maximal culture density [28]: 1.7; maximal culture density [29]: 0.489; maximal culture density [30]: 1.59; maximal culture density [31]: 0.501; maximal culture density [32]: 0.233; maximal culture density [33]: 1.59; maximal culture density (soa1 del [34]): 0.235; maximal culture density [35]: 1.58; maximal culture density [36]: 1.59; maximal culture density [37]: 0.289; maximal culture density [38]: 1.71; maximal culture density [39]: 0.373; maximal culture density [40]: 0.232; maximal culture density [41]: 0.242; maximal culture density [42]: 0.332

**Q.** Which results are given for `NCCS(=O)(=O)O` [Taurine]?
**A.** lag phase before growth [43]: 9.53 h; lag phase before growth [44]: 7.77 h; lag phase before growth [45]: 7.75 h; maximal growth rate [1]: 0.0033; maximal growth rate [2]: 0.00281; maximal growth rate [3]: 0.0291; maximal growth rate [4]: 0.0038; maximal growth rate [5]: 0.00339; maximal growth rate [6]: 0.00417; maximal growth rate [7]: 0.00328; maximal growth rate [8]: 0.0198; maximal growth rate [9]: 0.00328; maximal growth rate [10]: 0.0141; maximal growth rate [11]: 0.00349; maximal growth rate [12]: 0.0523; maximal growth rate (soa1 del [13]): 0.00366; maximal growth rate [14]: 0.00369; maximal growth rate [15]: 0.00382; maximal growth rate [16]: 0.0048; maximal growth rate [17]: 0.0111; maximal growth rate [18]: 0.0063; maximal growth rate [19]: 0.00383; maximal growth rate [20]: 0.00448; maximal growth rate [21]: 0.00581; maximal culture density [22]: 0.219; maximal culture density [23]: 0.187; maximal culture density [24]: 1.4; maximal culture density [25]: 0.215; maximal culture density [26]: 0.217; maximal culture density [27]: 0.228; maximal culture density [28]: 0.258; maximal culture density [29]: 0.515; maximal culture density [30]: 0.213; maximal culture density [31]: 0.498; maximal culture density [32]: 0.195; maximal culture density [33]: 1.6; maximal culture density (soa1 del [34]): 0.217; maximal culture density [35]: 0.284; maximal culture density [36]: 0.292; maximal culture density [37]: 0.317; maximal culture density [38]: 0.828; maximal culture density [39]: 0.305; maximal culture density [40]: 0.214; maximal culture density [41]: 0.245; maximal culture density [42]: 0.311
